Assays:
[1] = biological target: T1, GLS1 (purified recombinant human GAC) (Homo sapiens, UniProt O94925); assay: GLS1 enzymatic activity assay (dual-coupled, Amplex UltraRed/resorufin); type: biochemical
T1 sequence (O94925 55-598 isoform O94925-3 limits assumed): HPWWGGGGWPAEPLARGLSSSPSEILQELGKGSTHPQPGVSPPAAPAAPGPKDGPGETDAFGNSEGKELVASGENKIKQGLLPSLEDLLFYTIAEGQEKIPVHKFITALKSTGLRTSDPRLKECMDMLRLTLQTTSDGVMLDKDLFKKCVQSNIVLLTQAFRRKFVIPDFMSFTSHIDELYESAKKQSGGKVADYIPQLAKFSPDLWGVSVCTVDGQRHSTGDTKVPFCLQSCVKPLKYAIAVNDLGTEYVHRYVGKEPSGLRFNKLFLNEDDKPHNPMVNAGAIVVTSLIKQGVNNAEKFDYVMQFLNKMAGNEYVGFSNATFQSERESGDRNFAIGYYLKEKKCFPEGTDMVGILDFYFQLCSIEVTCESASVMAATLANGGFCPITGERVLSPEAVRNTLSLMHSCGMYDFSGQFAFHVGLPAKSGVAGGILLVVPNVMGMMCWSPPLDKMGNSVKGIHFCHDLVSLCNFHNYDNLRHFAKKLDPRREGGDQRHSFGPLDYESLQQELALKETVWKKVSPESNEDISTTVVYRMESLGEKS
How it was run: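 Recombinant human GAC (2 nM) preincubated with 50 mM potassium phosphate, then inhibitor (10 min each, RT); 1 mM glutamine, pH 7.4 Hepes buffer, 1% DMSO. Glutamate coupled via glutamate oxidase/HRP to resorufin (Ex 530/Em 590), kinetic or 20-min endpoint; IC50 by four-parameter logistic fit.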

[2] = system: A549 cells; assay: A549 proliferation (viability) assay, Cell Titer Fluor, 72 hours; type: cell-based; conditions: Homo sapiens
How it was run: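 Compound exposure lasted 72 h (final DMSO 0.5% v/v) on A549 cells plated at 1000 cells/well one day earlier. Cell Titer Fluor added, 30 min at 37 °C, fluorescence read; EC50 derived by four-parameter logistic curve fitting.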

Compound	IC50 [1] [nM]	EC50 [2] [nM]
O=C(Cc1ccccc1F)Nc1ccn(CCC(F)Cn2cc(C(=O)NCc3cncc(C(F)(F)F)c3)nn2)c(=O)c1F (stereo not shown) [Example 361, 1-(2-fluoro-4-{3-fluoro-4-[2-(2-fluorophenyl)acetamido]-2-oxo-1,2-dihydropyridin-1-yl}butyl)-N-{[5-(trifluoromethyl)pyridin-3-yl]methyl}-1H-1,2,3-triazole-4-carboxamide]	< 100	< 100
O=C(NCc1cncc(C(F)(F)F)c1)c1cn(CC(F)CCn2ccc(NC(=O)C(F)c3ccccc3)c(F)c2=O)nn1 (stereo not shown) [Example 362, 1-{2-fluoro-4-[3-fluoro-4-(2-fluoro-2-phenylacetamido)-2-oxo-1,2-dihydropyridin-1-yl]butyl}-N-{[5-(trifluoromethyl)pyridin-3-yl]methyl}-1H-1,2,3-triazole-4-carboxamide]	< 100	< 100
CCOC(=O)N1CCC(CC(=O)Nc2ccn(CCC(F)Cn3cc(C(=O)NCc4cncc(C(F)(F)F)c4)nn3)c(=O)c2F)CC1 (stereo not shown) [Example 363, ethyl 4-{[(3-fluoro-1-{3-fluoro-4-[4-({[5-(trifluoromethyl)pyridin-3-yl]methyl}carbamoyl)-1H-1,2,3-triazol-1-yl]butyl}-2-oxo-1,2-dihydropyridin-4-yl)carbamoyl]methyl}piperidine-1-carboxylate]	< 100	< 100
O=C(NCc1cncc(C(F)(F)F)c1)c1cn(CC(F)CCn2ccc(NC(=O)C3CCCC3)c(F)c2=O)nn1 (stereo not shown) [Example 364, 1-[4-(4-cyclopentaneamido-3-fluoro-2-oxo-1,2-dihydropyridin-1-yl)-2-fluorobutyl]-N-{[5-(trifluoromethyl)pyridin-3-yl]methyl}-1H-1,2,3-triazole-4-carboxamide]	< 100	< 100
Nc1ccn(CCC(F)Cn2cc(C(=O)NCc3ccc(C(F)(F)F)nc3)nn2)c(=O)c1F (stereo not shown) [Example 366, 1-[4-(4-amino-3-fluoro-2-oxo-1,2-dihydropyridin-1-yl)-2-fluorobutyl]-N-{[6-(trifluoromethyl)pyridin-3-yl]methyl}-1H-1,2,3-triazole-4-carboxamide]	> 5000	> 5000
O=C(Cc1ccccc1)Nc1ccn(CCC(F)Cn2cc(C(=O)NCc3ccc(C(F)(F)F)nc3)nn2)c(=O)c1F (stereo not shown) [Example 367, 1-{2-fluoro-4-[3-fluoro-2-oxo-4-(2-phenylacetamido)-1,2-dihydropyridin-1-yl]butyl}-N-{[6-(trifluoromethyl)pyridin-3-yl]methyl}-1H-1,2,3-triazole-4-carboxamide]	< 100	100 to 500
C[C@H](C(=O)Nc1ccn(CCC(F)Cn2cc(C(=O)NCc3ccc(C(F)(F)F)nc3)nn2)c(=O)c1F)c1ccccc1 (stereo partly drawn) [Example 368, 1-(2-fluoro-4-{3-fluoro-2-oxo-4-[(2S)-2-phenylpropanamido]-1,2-dihydropyridin-1-yl}butyl)-N-{[6-(trifluoromethyl)pyridin-3-yl]methyl}-1H-1,2,3-triazole-4-carboxamide]	< 100	< 100
O=C(CC1CCCC1)Nc1ccn(CCC(F)Cn2cc(C(=O)NCc3ccc(C(F)(F)F)nc3)nn2)c(=O)c1F (stereo not shown) [Example 369, 1-{4-[4-(2-cyclopentylacetamido)-3-fluoro-2-oxo-1,2-dihydropyridin-1-yl]-2-fluorobutyl}-N-{[6-(trifluoromethyl)pyridin-3-yl]methyl}-1H-1,2,3-triazole-4-carboxamide]	< 100	< 100
O=C(NCc1ccc(C(F)(F)F)nc1)c1cn(CC(F)CCn2ccc(NC(=O)C3CCCC3)c(F)c2=O)nn1 (stereo not shown) [Example 370, 1-[4-(4-cyclopentaneamido-3-fluoro-2-oxo-1,2-dihydropyridin-1-yl)-2-fluorobutyl]-N-{[6-(trifluoromethyl)pyridin-3-yl]methyl}-1H-1,2,3-triazole-4-carboxamide]	100 to 500	100 to 500
O=C(Cc1ccccc1F)Nc1ccn(CCC(F)Cn2cc(C(=O)NCc3ccc(C(F)(F)F)nc3)nn2)c(=O)c1F (stereo not shown) [Example 371, 1-(2-fluoro-4-{3-fluoro-4-[2-(2-fluorophenyl)acetamido]-2-oxo-1,2-dihydropyridin-1-yl}butyl)-N-{[6-(trifluoromethyl)pyridin-3-yl]methyl}-1H-1,2,3-triazole-4-carboxamide]	< 100	100 to 500
O=C(NCc1ccc(C(F)(F)F)nc1)c1cn(CC(F)CCn2ccc(NC(=O)C(F)c3ccccc3)c(F)c2=O)nn1 (stereo not drawn) [Example 372, l-{2-fluoro-4-[3-fluoro-4-(2-fluoro-2-phenylacetamido)-2-oxo-1,2-dihydropyridin-1-yl]butyl}-N-{[6-(trifluoromethyl)pyridin-3-yl]methyl}-1H-1,2,3-triazole-4-carboxamide]	< 100	100 to 500
O=C(Cc1ccccc1)Nc1ccn(CCC(F)Cn2cc(C(=O)NCc3ncccc3F)nn2)c(=O)c1F (stereo not shown) [Example 373, 1-{2-fluoro-4-[3-fluoro-2-oxo-4-(2-phenylacetamido)-1,2-dihydropyridin-1-yl]butyl}-N-[(3-fluoropyridin-2-yl)methyl]-1H-1,2,3-triazole-4-carboxamide]	100 to 500	500 to 5000
O=C(CC1CCC1)Nc1ccn(CCC(F)Cn2cc(C(=O)NCc3ccc(CF)nc3)nn2)c(=O)c1F (stereo not shown) [Example 374, 1-{4-[4-(2-cyclobutylacetamido)-3-fluoro-2-oxo-1,2-dihydropyridin-1-yl]-2-fluorobutyl}-N-{[6-(fluoromethyl)pyridin-3-yl]methyl}-1H-1,2,3-triazole-4-carboxamide]	< 100	100 to 500
O=C(Cc1ccccc1)Nc1ccn(CCC(F)Cn2cc(C(=O)NCc3ccc(CF)nc3)nn2)c(=O)c1F (stereo not shown) [Example 375, 1-{2-fluoro-4-[3-fluoro-2-oxo-4-(2-phenylacetamido)-1,2-dihydropyridin-1-yl]butyl}-N-{[6-(fluoro-methyl)pyridin-3-yl]methyl}-1H-1,2,3-triazole-4-carboxamide]	100 to 500	500 to 5000
O=C(Nc1ccn(CCC(F)Cn2cc(C(=O)NCc3cccc(OC(F)(F)F)c3)nn2)c(=O)c1F)OC1CCC1 (stereo not shown) [Example 376, cyclobutyl N-(3-fluoro-1-{3-fluoro-4-[4-({[3-(trifluoro-methoxy)phenyl]methyl}carbamoyl)-1H-1,2,3-triazol-1-yl]butyl}-2-oxo-1,2-dihydropyridin-4-yl)carbamate]	< 100	< 100
O=C(Nc1ccn(CCC(F)Cn2cc(C(=O)NCc3cc(C(F)(F)F)ccn3)nn2)c(=O)c1F)OC1CCC1 (stereo not shown) [Example 377, cyclobutyl N-(3-fluoro-1-{3-fluoro-4-[4-({[4-(trifluoromethyl)pyridin-2-yl]methyl}carbamoyl)-1H-1,2,3-triazol-1-yl]butyl}-2-oxo-1,2-dihydropyridin-4-yl)carbamate]	< 100	< 100
O=C(Cc1ccccc1)Nc1ccn(CCC(F)Cn2cc(C(=O)NCc3ccc(C(F)(F)F)cn3)nn2)c(=O)c1F (stereo not shown) [Example 379, 1-{2-fluoro-4-[3-fluoro-2-oxo-4-(2-phenylacetamido)-1,2-dihydropyridin-1-yl]butyl}-N-{[5-(trifluoromethyl)pyridin-2-yl]methyl}-1H-1,2,3-triazole-4-carboxamide]	< 100	100 to 500

— patent US20160002204A1 (Board of Regents, The University of Texas System, priority 2014, published 2016)
